In US20070219234A1, “Thienopyridine Derivatives” (priority 2004, published 2007):

How the values were obtained:
ST2 cells = assay: Osteoblast differentiation test (alkaline phosphatase activity); format: cell-based; settings: Mus musculus, ST-2, 96 h; at 0.03 μg/mL; culturing for four days; control group (0.1% DMSO) = 100%; read-out: alkaline phosphatase activity increase rate
Description: ST2 cells (available from Institute of Physical and Chemical Research) which are stroma cells derived from mouse marrow were used. In this test, α-MEM medium (available from GIBCO BRL Cat. No. 10370-021) with which 10% (v/v) inactivated fetal bovine serum (available from Hyclone Company, FBS) and 1% (v/v) Penicillin-Streptomycin, Liquid (available from GIBCO BRL Cat. No. 15140-122) are mixed (hereinbelow abbreviated as 10% -FBS-αMEM) was used. Every culture in this test was conducted in a CO2 incubator (37° C., 95% humidity, 5% CO2).
The cells mentioned above were harvested with 2 mL of 0.25% trypsin solution (available from GIBCO BRL Cat. No. 15050-065) and after they were dispersed by adding 10 mL of 10% -FBS-αMEM, the cells were collected by centrifugal separation (25° C., 800 rpm, 5 minutes). A cell suspension containing 40,000 cells/mL was prepared from the collected cells using 10% -FBS-αMEM.
The cell suspension was dispensed to the wells of a 96 well microplate (Falcon company) in an amount of 100 μL per well so as to achieve 4,000 cells/well and cultured for 24 hours. Compounds were dispensed to the wells in final concentrations of 0.01, 0.03, 0.1, 0.3 μg/ml except the following control group. DMSO was dispensed to the wells of the control group in a final concentration of 0.1% (v/v). Alkaline phosphatase (ALP) activity was measured for each group after culturing for four days.
The measurement of ALP activity was performed as follows. That is, after the whole medium was removed from each well of the culturing plate, each well was washed twice by dispensing and removing 100 μL of Dulbecco's phosphate buffer (available from GIBCO BRL Cat. No. 14190-144). Cell lysing solution containing 10 mM MgCl2 and 2%(v/v) TritonX-100 (Sigma company) was prepared and 50 μL/well of the cell lysing solution was dispensed and the mixture was stirred at room temperature for five minutes. An ALP substrate solution containing 50 mM of diethanolamine (Wako Pure Chemical Industries, Ltd. Cat. No. 099-03112) and 20 mM of […] (Wako Pure Chemical Industries, Ltd. Cat. No. 147-02343) was prepared and 50 μL/well of the ALP substrate solution was dispensed and after allowing to stand at room temperature for 10 minutes, absorbance was measured using a microplate reader (Bio-rad company). Alkaline phosphatase activity increase rate (%) in the group blended with test compounds was calculated assuming the observed value of the control group of each plate to be 100% and evaluated as the osteoblast differentiation promoting activity.

[1] = system: cells from femurs and tibias of ICR mice; assay: Osteoclast formation suppression test (TRAP activity); format: cell-based, mouse; settings: 20 nM active form vitamin D3; compounds 0.01-0.3 μg/ml; culturing for five days
Description: 18 day-old ICR mice were purchased from Japan SLC, Inc. and used in the following experiments. The mice were sacrificed by cervical dislocation and the right and left femurs and tibias were extracted. After the tissue around the extracted femurs and tibias was removed, they were finely minced with scissors. 10 mL of 15%-FBS-αMEM was added to the minced femurs and tibias and the supernatant was collected after agitation for one minute and filtering with a cell strainer (Becton Dickinson company). A cell suspension containing 500,000 cells/mL was prepared with 15%-FBS-αMEM. The cell suspension was dispensed to the wells of a 96 well microplate (Falcon company) in an amount of 100 μL per well so as to achieve 50,000 cells/well and cultured for 24 hours. Active form vitamin D3 (Sigma company, Cat.No.D1530) was dispensed to the wells in final concentrations of 20 nM. Compounds were dispensed to the wells in final concentrations of 0.01, 0.03, 0.1, 0.3 μg/ml except the following control group. DMSO was dispensed to the wells of the control group in a final concentration of 0.1% (v/v). Tartrate-resistant acid phosphatase (TRAP) activity was measured for each group after culturing for five days.
The measurement of TRAP activity was performed as follows. That is, after the whole medium was removed from each well of the culturing plate, each well was washed twice by dispensing and removing 100 μL of Dulbecco's phosphate buffer (available from GIBCO BRL Cat. No. 14190-144). After retaining with a mixture of acetone-ethanol (1:1) for one minute, the retention liquid was removed and the wells were stained at 37° C. with Leukocyte acid phosphatase kit (Sigma company, Cat. No. 387-A) for 30 minutes. The staining solution was removed, then 100 μL of 10% sodium dodecylsulfate (Wako Pure Chemical Industries, Ltd. Cat. No. 191-07145) was dispensed and the mixture was stirred for five minutes, and then absorbance was measured using a microplate reader (Bio-rad company). TRAP activity decrease rate (%) in the group blended with test compounds was calculated assuming the observed value of the control group of each plate to be 100% and evaluated as the osteoclast formation suppression activity.

female F344 rats [2] = assay: Effect on bone mineral density (ovariectomy); format: in vivo, rat; settings: 10 mg/kg, orally once per day, six days a week, six weeks
Description: 8 week-old female F344 rats were purchased from Charles River Laboratories and used in the following experiment. After ketamine (12.5 mg/ml)/xylazine (2.5 mg/ml) liquid mixture was intraperitoneally injected in an amount of 0.25 ml/100 g for anesthesia, ovariectomy or a sham operation was performed. From the next day of the operation, 0.5% carboxymethyl cellulose sodium salt solution (Wako Pure Chemical Industries, Ltd. Cat. No.039-01335) in which a test compound was suspended was orally administered once per day and six days a week. Six weeks after the administration started, the animals were painlessly killed by removing the whole blood from the aorta abdominalis under ketamine xylazine anesthesia and the right and left femurs were extracted.
After soft tissue was removed from the extracted femurs, the bone density was measured by DXA device DCS-600R (Aloka Co., Ltd.). The bone density was determined for the whole femur as well as three evenly divided parts, i.e., proximal, midshaft and distal end.

female F344 rats [3] = assay: Effect on fracture healing; format: in vivo, rat; settings: orally once per day, six days a week, 39 days
Description: 12 week-old female F344 rats were purchased from Charles River Laboratories and used in the following experiment. An operation for fracturing bone was performed following a method of Li et al. (J. Bone Miner. Res 1999, 14: 969-979) under ketamine xylazine anesthesia. From the next day of the operation, 0.5% carboxymethyl cellulose sodium salt solution (Wako Pure Chemical Industries, Ltd. Cat. No. 039-01335) in which a test compound was suspended was orally administered once per day and six days a week. 39 days after the administration started, the animals were painlessly killed by removing the whole blood from the aorta abdominalis under ketamine xylazine anesthesia and the femurs were extracted.
After soft tissue was removed from the extracted femurs, they were measured by bone strength measuring apparatus MZ-500D (Maruto Instrument Co., Ltd.). 3-point bending tests were performed and determined by maximum load.

## NC(=O)c1sc2nccc(N3CCCN(c4ccccc4)CC3)c2c1N [Example 57, 3-amino-4-(4-phenyl-1,4-diazepan-1-yl)thieno[2,3-b]pyridine-2-carboxamide]
ST2 cells
  activity at 0.03 µg/mL: > 150%
[1]
  osteoclast formation suppression effect (TRAP activity decrease rate): excellent osteoclast formation suppression effect
Female F344 rats [2]
  bone density of femur (DXA): significantly increased the bone density
Female F344 rats [3]
  fracture healing (3-point bending test, maximum load): significantly improved fracture healing

## NC(=O)c1sc2nccc(N3CCCN(c4ccccn4)CC3)c2c1N [Example 99, 3-amino-4-(4-pyridin-2-yl-1,4-diazepan-1-yl)thieno[2,3-b]pyridine-2-carboxamide]
ST2 cells
  activity at 0.03 µg/mL: > 150%
[1]
  osteoclast formation suppression effect (TRAP activity decrease rate): excellent osteoclast formation suppression effect
other
  melting point: 237 to 239 °C

## COCC1CCCN(c2ccnc3sc(C(N)=O)c(N)c23)C1 (stereo not shown) [Example 101, 3-amino-4-[3-(methoxymethyl)piperidin-1-yl]thieno[2,3-b]pyridine-2-carboxamide]
ST2 cells
  activity at 0.03 µg/mL: > 150%
[1]
  osteoclast formation suppression effect (TRAP activity decrease rate): excellent osteoclast formation suppression effect
other
  melting point: 229 to 230 °C

## Cc1ccc(N2CCCN(c3ccnc4sc(C(N)=O)c(N)c34)CC2)nc1 [Example 106, 3-amino-4-[4-(5-methylpyridin-2-yl)-1,4-diazepan-1-yl]thieno[2,3-b]pyridine-2-carboxamide]
ST2 cells
  activity at 0.03 µg/mL: > 150%
[1]
  osteoclast formation suppression effect (TRAP activity decrease rate): excellent osteoclast formation suppression effect
other
  melting point: 205 to 208 °C
